Data: article PMC7763603, “Structural Basis for Design of New Purine-Based Inhibitors Targeting the Hydrophobic Binding Pocket of Hsp90” (International Journal of Molecular Sciences, 2020)
Where two headings read alike, the source gives them in different places. One block for each molecule: values may come before it.

How the values were obtained:
SK-BR-3 cells = assay: MTT antiproliferative assay, SK-BR-3; format: cell-based, human; details: for GI50: mean ± SEM of two experiments; for inhibition at 10 µM: read-out: SK-BR-3 % Inh. at 10 μM
Text: […] […] Such modest cellular outcomes of those purine derivatives may be attributed to their lower lipophilic characters, which in turn restrict their cellular permeability into cancer cells. […] The 2-phenyloxazole-substituted purine 8 exerted reasonable antiproliferative activity, with GI values of 33.27% and 37.46% against MCF-7 and SK-BR-3 cells, respectively.
(§1) Cytotoxic activity of certain Hsp90 inhibitors against human cancer cell lines (MCF-7, SK-BR-3, and HCT116) was investigated using the MTT assay following the reported procedure. Cells were seeded into 96-well plates at a density of 3000 cells per well (MCF-7, HCT116, SK-BR-3 cells per each well). The compounds were added into cells and incubated for 72 h. Then, absorbance at 450 nm was measured using a Microplate Absorbance Reader (Bio-Rad, Hercules, CA, USA).

HCT116 cells = assay: MTT antiproliferative assay, HCT116; format: cell-based, human; details: for GI50: mean ± SEM of two experiments; for inhibition at 10 µM: read-out: HCT116 % Inh. at 10 μM
Protocol: The growth inhibitory effects of the test compounds, at 10 µM dose, were determined after 72 h incubation using the 3-(4,5-dimethylthiazol-2-yl)-2,5-diphenyl tetrazolium bromide (MTT) assay.
as §1

[1] = target: T1, human recombinant N-terminal Hsp90α (Homo sapiens, UniProt P07900); assay: Fluorescence polarization competition assay with FITC-GM probe (Reaction Biology Corporation); format: binding; details: for inhibition at 10 µM: read-out: Hsp90α % Inhibition @10 μM; for IC50: 10-dose, threefold serial dilution starting at 100 μM, mean of two experiments
T1 construct: human recombinant N-terminal Hsp90α protein; purchased Reaction Biology Corporation (RBC, Malvern, PA, USA; assay service)

MCF-7 cells = assay: MTT antiproliferative assay, MCF-7; format: cell-based, human; details: for inhibition at 10 µM / GI50: Homo sapiens, MCF7, 72 h; for inhibition at 10 µM: read-out: MCF-7 % Inh. at 10 μM; for GI50: mean ± SEM of two experiments
Protocol: The growth inhibitory effects of the test compounds, at 10 µM dose, were determined after 72 h incubation using the 3-(4,5-dimethylthiazol-2-yl)-2,5-diphenyl tetrazolium bromide (MTT) assay. […] Such modest cellular outcomes of those purine derivatives may be attributed to their lower lipophilic characters, which in turn restrict their cellular permeability into cancer cells. […] The 2-phenyloxazole-substituted purine 8 exerted reasonable antiproliferative activity, with GI values of 33.27% and 37.46% against MCF-7 and SK-BR-3 cells, respectively.
as §1

[2] = target: T2, mHsp90ND (N-terminal domain of mouse Hsp90α) (Mus musculus, UniProt P07901); assay: Isothermal titration calorimetry (ITC); format: binding
T2 construct: Hsp90α (residues 9–225 Swiss Prot entry: P07901); His6 (N); made in house; host or cells: Escherichia coli BL21 (DE3) codon plus RIL
Protocol: The PCR product was cloned into plasmid pET28a, which encodes a purification tag consisting of the amino acids His6 at the N-terminal of the protein. mHsp90ND was expressed in Escherichia coli (E. coli) BL21 (DE3) codon plus RIL (Stratagene) cell. The cells were lysed by sonication in 50 mM Tris-HCl (pH 7.4), 100 mM NaCl, 2 mM 2-mercaptoethanol, and 0.2 mM phenylmethylsulfonyl fluoride (PMSF). After centrifugation, mHsp90ND in the supernatant was purified by Ni^2+-chelated Hi-trap chelating column, and HiLoad 26/60 200pg column (GE healthcare, Chicago, IL, USA). After the final step, mHsp90ND was stored in 20 mM Tris-HCl (pH 7.4), 100 mM NaCl, and 1 mM dithiothreitol (DTT).
Stock solutions of those compounds were prepared in dimethyl sulfoxide (DMSO) at 100 mM concentration and stored at −20 °C. The ITC buffer contained 20 mM Tris (pH 8.0), 100 mM NaCl, and up to 2% DMSO. […] The experimental raw data were corrected for dilution by subtracting the values for buffer alone and then fit by a one-site binding model. Titration data were fit using a nonlinear least squares curve-fitting algorithm with three floating variables: stoichiometry, binding constant (KD), and change of enthalpy of interaction.

Hsp90α = Hsp90α (Homo sapiens, UniProt P07900); assay: Colorimetric determination of ATPase activity of Hsp90; format: biochemical; details: 50 µM compound, 30 min, compared to positive control with Hsp90α, duplicate
Protocol: The reaction was terminated by adding 200 μL reagent buffer. Followed by incubation with reagent buffer for 30 min at the room temperature, the absorbance was measured at 620 nm using a Biotek-Synergy Neo-Plate Reader (BioTek Instruments, Winooski, VT, USA).

[3] = tested on: HSP90 client proteins (EGFR, Akt), Hsp70 in MCF7 cells; assay: Western blot of HSP90 client proteins and Hsp70 in MCF7 cells; format: cell-based, human; details: 24 h
Protocol: Furthermore, the effect of compound 14 on cellular biomarkers of the HSP90 inhibition was evaluated to obtain insights about the molecular mechanisms triggering its anticancer activity. MCF7 cells were incubated with various doses of compound 14 (0.5, 1, 5, 10, and 20 μM) for 24 h, and the expression levels of HSP90 client proteins (EGFR, Akt, and Cdk4), Hsp90, HSP70, and glyceraldehyde-3-phosphate dehydrogenase (GAPDH) were determined by Western blot analysis (Figure 6).
MCF7 cells were seeded in 60 mm culture dishes, incubated overnight, and treated with the indicated concentrations of compound 14 or geldanamycin for 24 h. Cells were then harvested and lysed on ice by radioimmunoprecipitation assay (RIPA) buffer (23 mM Tris-HCl (pH 7.6), 130 mM NaCl, 1% nonidet P-40 (NP-40), 1% sodium deoxycholate, 0.1% SDS) supplemented with protease and phosphatase inhibitor cocktails, and […] of lysate perlane was separated by SDS-PAGE, followed by transferring to a polyvinylidene fluoride (PVDF) membrane (Bio-Rad, Hercules, CA, USA). The membrane was blocked with 5% skim milk in TBS-T, and then incubated with the corresponding primary antibody (EGFR, Akt, Hsp90, Hsp70, or GAPDH). After binding of an appropriate secondary antibody (Santa Cruz, CA, USA) coupled to horseradish peroxidase, proteins were visualized by enhanced chemiluminescence (ECL) according to the instructions of the manufacturer (GE healthcare, Chicago, IL, USA).

[4] = set-up: method as in PMID 22938030; details: in mice; cited from earlier work
[5] = single dose 10 μM, duplicate, FITC-GM probe
[6] = Homo sapiens, SK-BR-3, 72 h, 10 μM
[7] = Homo sapiens, HCT-116, 72 h, 10 μM
[8] = ITC, 25 °C, one-site binding model
[9] = ITC, 25 °C, one-site binding model, read-out: KD

Molecule: 6-Chloro-9-((2-phenyloxazol-5-yl)methyl)-7H-purin-2-amine [Compound 8]
SK-BR-3 % Inh. at 10 μM (SK-BR-3 cells; 10 μM, 72 h): 37.46%
GI50 (SK-BR-3 cells; 72 h): 22500 ± 700 nM
HCT116 % Inh. at 10 μM (HCT116 cells; 10 μM, 72 h): 19.19%
GI50 (HCT116 cells; 72 h): 23400 ± 2940 nM
Hsp90α % Inhibition @10 μM [1, 5]: 48.7%
MCF-7 % Inh. at 10 μM (MCF-7 cells; 10 μM, 72 h): 33.27%

Molecule: COc1c(C)cnc(Cn2cnc3c(Cl)nc(N)nc32)c1C [BIIB021, reference compound]
inhibition at 10 µM (SK-BR-3 cells; [6]): 71.9%
GI50 (SK-BR-3 cells; Homo sapiens, SK-BR-3, 72 h): 347 ± 23 nM
inhibition at 10 µM (HCT116 cells; [7]): 86.2%
inhibition at 10 µM (MCF-7 cells; 10 μM): 84.8%
GI50 (MCF-7 cells): 392 ± 30 nM

Molecule: CC(C)(C)C1=NOC(Cn2cnc3c(Cl)nc(N)nc32)C1 (centres unmarked) [Compound 4b, 9-((3-(tert-Butyl)-4,5-dihydroisoxazol-5-yl)methyl)-6-chloro-9H-purin-2-amine]
inhibition at 10 µM (HCT116 cells; [7]): < 30%
inhibition at 10 µM [1, 5]: 35.4%
∆H ([2]; ITC, 25 °C): -19.8 ± 3.29 kcal/mol
∆S ([2]; ITC, 25 °C): −44.5 cal/mol/deg
N (binding stoichiometry) [2, 8]: 1.17
Kd [2, 9]: 15600 nM
melting point: 198.3 to 200.8 °C

Molecule: CCOC(=O)c1cc(Cn2cnc3c(Cl)nc(N)nc32)no1 [Compound 7, Ethyl 3-((2-amino-6-chloro-9H-purin-9-yl)methyl)isoxazole-5-carboxylate]
inhibition at 10 µM [1, 5]: 14.8%

Molecule: Nc1nc(Cl)c2c(ncn2Cc2cnc(-c3ccccc3)o2)n1 [Compound 9, 6-Chloro-7-((2-phenyloxazol-5-yl)methyl)-7H-purin-2-amine]
Hsp90α % Inhibition @10 μM [1, 5]: fluorescence background that interfered with the assay

Molecule: Cc1ccc(C#CCn2cnc3c(Cl)nc(N)nc32)cc1 [Compound 10, 6-Chloro-9-(3-(p-tolyl)prop-2-yn-1-yl)-9H-purin-2-amine]
inhibition at 10 µM [1, 5]: 22.2%

Molecule: Cc1ccc(C#CCn2cnc3nc(N)nc(Cl)c32)cc1 [Compound 11, 6-Chloro-7-(3-(p-tolyl)prop-2-yn-1-yl)-7H-purin-2-amine]
Hsp90α % Inhibition @10 μM [1, 5]: fluorescence background that interfered with the assay

Molecule: Cc1ccc(-c2[nH]nnc2Cn2cnc3c(Cl)nc(N)nc32)cc1 [Compound 12, 6-Chloro-9-((5-(p-tolyl)-1H-1,2,3-triazol-4-yl)methyl)-9H-purin-2-amine]
Hsp90α % Inhibition @10 μM [1, 5]: fluorescence background that interfered with the assay

Molecule: Cc1ccc(-c2[nH]nnc2Cn2cnc3nc(N)nc(Cl)c32)cc1 [Compound 13, 6-Chloro-7-((5-(p-tolyl)-1H-1,2,3-triazol-4-yl)methyl)-7H-purin-2-amine]
Hsp90α % Inhibition @10 μM [1, 5]: fluorescence background that interfered with the assay

Molecule: Cc1ccc(Cn2cnc3c(Cl)nc(N)nc32)cc1 [Compound 14, 6-Chloro-9-(4-methylbenzyl)-9H-purin-2-amine]
inhibition at 10 µM (SK-BR-3 cells; [6]): 60.9%
GI50 (SK-BR-3 cells; Homo sapiens, SK-BR-3, 72 h): 15200 ± 2080 nM
activity at 50 µM (Hsp90α): 83.6%
inhibition at 10 µM (HCT116 cells; [7]): 46.5%
IC50 ([1]; FITC-GM probe): 1000 nM
inhibition at 10 µM [1, 5]: 95.4%
EGFR expression level ([3]; 10 μM): remarkably decreased
Akt expression level ([3]; 20 μM): remarkably decreased
Hsp70 expression level ([3]; 0.5-20 μM, dose-dependent): upregulated
∆H ([2]; ITC, 25 °C): -17.8 ± 0.2 kcal/mol
∆S ([2]; ITC, 25 °C): −30.5 cal/mol/deg
N (binding stoichiometry) [2, 8]: 0.89
Kd [2, 9]: 410 nM
inhibition at 10 µM (MCF-7 cells; 10 μM): 55.1%
GI50 (MCF-7 cells): 16200 ± 710 nM

Molecule: C=CCNC1=C2C[C@@H](C)C[C@H](OC)[C@H](O)[C@@H](C)/C=C(\C)[C@H](OC(N)=O)[C@@H](OC)/C=C\C=C(/C)C(=O)NC(=CC1=O)C2=O [Compound 17-AAG, Allyl-aminogeldanamycin, reference compound]
inhibition at 10 µM (SK-BR-3 cells; [6]): 74.4%
GI50 (SK-BR-3 cells; Homo sapiens, SK-BR-3, 72 h): 140 ± 12 nM
inhibition at 10 µM (HCT116 cells; [7]): 88.9%
GI50 (HCT116 cells; Homo sapiens, HCT-116, 72 h): 205 ± 9 nM
inhibition at 10 µM [1]: 100%
Kd [2]: 2900 nM
N (binding stoichiometry) [2]: 0.98
∆H [2]: -8.6 ± 0.4 kcal/mol
∆S [2]: −3.66 cal/mol/deg
inhibition at 10 µM (MCF-7 cells; 10 μM): 79.7%
GI50 (MCF-7 cells): 498 ± 60 nM

Molecule: COc1c(C)cnc(Cn2cc(C#CCC(C)(C)O)c3c(Cl)nc(N)nc32)c1C [EC144]
efficacy relative to BIIB021 [4]: approximately 20 fold

The next lines start with results.

GI50 (SK-BR-3 cells; Homo sapiens, SK-BR-3, 72 h): 26000 ± 1360 nM
potency relative to isoxazoline congener 4b (from % inhibition) ([1]; 10 μM, FITC-GM probe): 2.7 fold
IC50 ([1]; FITC-GM probe): 1760 nM
inhibition at 10 µM [1, 5]: 95.8%
∆H ([2]; ITC, 25 °C): -14.5 ± 0.4 kcal/mol
∆S ([2]; ITC, 25 °C): −19.4 cal/mol/deg
N (binding stoichiometry) [2, 8]: 0.97
Kd [2, 9]: 440 nM
Molecule: CC(C)(C)c1cc(Cn2cnc3c(Cl)nc(N)nc32)on1 [Compound 6b, 9-((3-(tert-Butyl)isoxazol-5-yl)methyl)-6-chloro-9H-purin-2-amine]
inhibition at 10 µM (SK-BR-3 cells; [6]): 45.8%
inhibition at 10 µM (HCT116 cells; [7]): 26%
inhibition at 10 µM (MCF-7 cells; 10 μM): 15.7%

IC50 ([1]; FITC-GM probe): 203 nM
inhibition at 10 µM [1, 5]: 77.3%
∆H ([2]; ITC, 25 °C): -15.8 ± 0.5 kcal/mol
∆S ([2]; ITC, 25 °C): −24.8 cal/mol/deg
N (binding stoichiometry) [2, 8]: 1.00
Kd [2, 9]: 680 nM
Molecule: CC(C)c1cc(Cn2cnc3c(Cl)nc(N)nc32)on1 [Compound 6c, 6-Chloro-9-((3-isopropylisoxazol-5-yl)methyl)-9H-purin-2-amine]
inhibition at 10 µM (SK-BR-3 cells; [6]): 33.2%
inhibition at 10 µM (HCT116 cells; [7]): -0.6%
inhibition at 10 µM (MCF-7 cells; 10 μM): 11.9%
